This experiment deals with T1, MeCP2-TBL1 interaction (MeCP2-SmBiT / TBL1-LgBiT) (Mus musculus, UniProt Q9QXE7).
T1 construct: expressed in transfected cells; crude lysate used as a cell-free assay
T1 sequence (Q9QXE7 166-527): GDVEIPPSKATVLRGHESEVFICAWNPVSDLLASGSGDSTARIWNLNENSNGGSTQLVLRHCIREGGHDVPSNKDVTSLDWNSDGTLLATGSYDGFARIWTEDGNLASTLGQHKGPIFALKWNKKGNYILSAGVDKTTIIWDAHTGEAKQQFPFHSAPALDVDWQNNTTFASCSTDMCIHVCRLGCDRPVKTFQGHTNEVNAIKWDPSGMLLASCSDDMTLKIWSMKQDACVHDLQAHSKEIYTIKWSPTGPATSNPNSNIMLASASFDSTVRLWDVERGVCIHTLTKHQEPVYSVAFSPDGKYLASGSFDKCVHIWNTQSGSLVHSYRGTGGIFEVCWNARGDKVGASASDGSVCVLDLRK
Briefly: MeCP2-TBL1 NanoLuc luciferase complementation assay (cell-free, extracts of transfected HEK293 cells).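 Note: each compound tested at 20 µM final concentration.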 In kind it is binding, human. The procedure, abridged: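 Cell-free split NanoLuc: lysate of HEK293 cells co-expressing the MeCP2 C-terminal half-SmBiT and TBL1 WD domain-LgBiT, mixed 1:1 with furimazine. After 30 min at room temperature, luminescence was plate-median normalized.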

[1] abbreviates: primary screen of the Asinex library, sheet "Sargen output Asinex library", one well per compound.
Where [2] appears, read: primary screen of Asinex library, single well per compound.
The mark [3] stands for this setting: primary screen of the Asinex library, sheet "Sargen output Asinex library", one well per compound, Batch Ref. 1.

Consider 57 compounds from article PMC9995496, “A screen for MeCP2-TBL1 interaction inhibitors using a luminescence-based assay” (Scientific Reports, 2023).

Consider `Cc1n[nH]c(C)c1S(=O)(=O)N1CCC2(CC1)CO[C@@H]1c3ccccc3OC(C)(C)[C@H]1C2` [BDG_33694386], for which the Inhibition percent under setting [1] amounted to 2.05%. With `CC1(C)Oc2ccc(Cl)cc2[C@H]2OCC3(CCN(C(=O)CNC(=O)c4ccccc4)CC3)C[C@@H]21` [BDG_33694526], the Inhibition percent under setting [2] is -2.33. As for `CC1(C)Oc2ccccc2[C@H]2OCC3(CCN(C(=O)c4[nH]nc5c4CCCCC5)CC3)C[C@@H]21` [BDG_33694755], the Inhibition percent under setting [3] is on record as 2.01%.

Take `COc1cccc2c1OC(C)(C)[C@H]1CC3(CCN(C(=O)CCCN4C(=O)CNC4=O)CC3)CO[C@H]21` [BDG_33695254]: the Inhibition percent under setting [2] is reported as -4.47. In the case of `CC1(C)Oc2ccccc2[C@H]2OCC3(CCN(C(=O)c4cccc(-n5cnnc5)c4)CC3)C[C@@H]21` [BDG_33695504], the Inhibition percent under setting [3] turned out to be 0.97%. For `CC1(C)Oc2ccccc2[C@H]2OCC3(CCN(C(=O)c4ccnc(N5CCCC5)c4)CC3)C[C@@H]21` [BDG_33695760], the Inhibition percent under setting [2] turned out to be 0.33. As for `CCN(CC)S(=O)(=O)N1CCC2(C/C=C/Cc3ccccc3OCC(=O)NC2)CC1` [BDG_33697034], the Inhibition percent under setting [2] is listed as 1.72.

Consider `COCC(=O)N1CC2(CO[C@@H]3c4cccc(OC)c4OC(C)(C)[C@H]3C2)C1` [BDG_33739062], for which, under setting [3], the Inhibition percent is -2.32%.

For `COc1cccc2c1OC(C)(C)[C@H]1CC3(CO[C@H]21)CN(Cc1cn(C)cn1)C3` [BDG_33739186], under setting [1], the Inhibition percent was -0.50%. In the case of `Cc1cccnc1C(=O)N1CC2(CO[C@@H]3c4ccccc4OC(C)(C)[C@H]3C2)C1` [BDG_33739514], the Inhibition percent under setting [3] is on record as 0.31%.

With `Cc1ccc2c(c1)OC(C)(C)[C@H]1CC3(CO[C@H]21)CN(C(=O)CCn1nc(O)ccc1=O)C3` [BDG_33741109], the Inhibition percent under setting [3] is -2.39%. `Cc1cc(C)n(CCCC(=O)N2CCCC[C@]3(C)NC(=O)CC[C@H]23)n1` [BDG_33850399]: the Inhibition percent under setting [2] was found to be 0.88.

Turning to `CC(C)(C)OC(=O)N1CC[C@H]2O[C@H]3c4ccccc4OC(C)(C)[C@@H]3C[C@@]2(CO)C1` [BDG_33896521], the Inhibition percent under setting [1] is 3.83%.

For `CN(CCOc1ccccc1)C(=O)c1c(O)ccc2c1O[C@@H]1C[C@H]3C[C@H](C3(C)C)[C@]1(O)[C@H]2O` [BDG_33899827], under setting [3], the Inhibition percent is 2.70%. For the compound `COc1cccc2c1OC1(CCN(C)CC1)[C@H]1CCCO[C@H]21` [BDG_33900051], under setting [1], the Inhibition percent is on record as -1.32%. For `Oc1cccc2c1OC1(CCN(Cc3ccccc3)CC1)[C@H]1CCCO[C@H]21` [BDG_33900148], the Inhibition percent under setting [3] was 0.73%. Regarding `Oc1cccc2c1OC1(CCN(Cc3ccncc3)CC1)[C@H]1CCCO[C@H]21` [BDG_33900152], the Inhibition percent under setting [1] is -3.60%. As to `Cc1ccc2c(c1)OC1(CCN(Cc3cscn3)CC1)[C@H]1CCCO[C@H]21` [BDG_33900204], the Inhibition percent under setting [3] was determined as 4.69%. With `COC(C)(C)C(=O)N1CCC2(CC1)Oc1c(O)cccc1[C@H]1OCCC[C@@H]12` [BDG_33900229], the Inhibition percent under setting [1] is listed as -2.79%. On to `COc1cccc2c1OC1(CCN(C(=O)C(C)(C)OC)CC1)[C@H]1CCCO[C@H]21` [BDG_33900230], for which the Inhibition percent under setting [3] is -2.85%.

For the compound `COc1cccc2c1OC1(CCN(Cc3cccc(O)c3)CC1)[C@H]1CCCO[C@H]21` [BDG_33900272], the Inhibition percent under setting [3] is recorded as 6.42%. On to `Cc1cnn(CC(=O)N2CCC3(CC2)Oc2ccc(Cl)cc2[C@H]2OCCC[C@@H]23)c1` [BDG_33900405], for which the Inhibition percent under setting [2] stood at 5.31. With `Cc1ccc2c(c1)OC1(CCN(Cc3ccc(Cl)cn3)CC1)[C@H]1CCCO[C@H]21` [BDG_33900424], the Inhibition percent under setting [2] is given as 0.92.

With `COc1ccccc1C(=O)N1CCC2(CC1)Oc1ccc(Cl)cc1[C@H]1OCCC[C@@H]12` [BDG_33900472], the Inhibition percent under setting [3] turned out to be 10.01%. As to `CS(=O)(=O)c1ccc(CN2CCC3(CC2)Oc2ccc(Cl)cc2[C@H]2OCCC[C@@H]23)cc1` [BDG_33900656], the Inhibition percent under setting [3] is given as -0.96%.

`CC(C)N1CC[C@H]2O[C@H]3c4ccccc4OC(C)(C)[C@@H]3C[C@H]21` [BDG_33900670]: the Inhibition percent under setting [1] was -3.00%.

With `COCC(=O)N1CC[C@H]2O[C@H]3c4ccccc4OC(C)(C)[C@@H]3C[C@H]21` [BDG_33900725], under setting [1], the Inhibition percent is listed as 0.0324%. `CC1(C)Oc2ccccc2[C@@H]2O[C@@H]3CCN(C(=O)CCN4CCCC4=O)[C@@H]3C[C@H]21` [BDG_33901240]: the Inhibition percent under setting [2] is listed as 0.48. In the case of `Clc1ccc2c(c1)[C@H]1OCCC[C@@H]1C1(CCN(CC3CCOCC3)CC1)O2` [BDG_33901423], the Inhibition percent under setting [1] is on record as -1.08%. Consider `C[C@@H]1CC[C@@H]2[C@@H](C1)c1c(ccc(C(=O)NCCN(C)C)c1O)OC2(C)C` [BDG_33904603], for which the Inhibition percent under setting [3] came out at 9.91%. As to `C[C@@H]1CC[C@@H]2[C@@H](C1)c1c(ccc(C(=O)O)c1O)OC2(C)C` [BDG_33904752], the Inhibition percent under setting [1] turned out to be 2.57%. Regarding `CC(=O)N[C@H](CC(N)=O)C(=O)N1CC[C@@H]2O[C@@H]3c4ccccc4OC(C)(C)[C@H]3C[C@@H]2C1` [BDG_33905309], under setting [2], the Inhibition percent is 0.54. Consider `CC(=O)N[C@@H](Cc1c[nH]c2ccccc12)C(=O)N1CC[C@H]2O[C@H]3c4cc(Cl)ccc4OC(C)(C)[C@@H]3C[C@H]2C1` [BDG_33905586], for which the Inhibition percent under setting [3] is recorded as -0.13%.

As for `O=[N+]([O-])c1ccc2c(c1)[C@H]1OCCC[C@@H]1C1(CCCCC1)O2` [BDG_33907582], under setting [1], the Inhibition percent was 0.74%. Consider `CC(C)(C)OC(=O)N1CC[C@H]2O[C@H]3c4ccc(O)cc4OC(C)(C)[C@@H]3C[C@@H]2C1` [BDG_33953342], for which the Inhibition percent under setting [1] is 2.11%. Turning to `CC1(C)Oc2ccccc2[C@@H]2O[C@@H]3CCCN[C@@H]3C[C@H]21` [BDG_33956274], the Inhibition percent under setting [1] is recorded as -3.58%. On to `CCOc1cccc2c1OC(C)(C)[C@@H]1C[C@@H]3CNCC[C@H]3O[C@@H]21` [BDG_33956280], for which, under setting [1], the Inhibition percent was -0.94%.

On to `CC(C)=CCC[C@@]1(C)Oc2cc(OCCO)ccc2[C@H]2O[C@H]3CCN(C(=O)OC(C)(C)C)C[C@@H]3C[C@@H]21` [BDG_33958723], for which the Inhibition percent under setting [3] was 5.54%.

In the case of `COc1cccc2c1OC(C)(C)[C@H]1CC3(CCNCC3)[C@H](C)O[C@H]21` [BDG_33959669], under setting [1], the Inhibition percent is recorded as 0.05%. As for `CC(C)[C@H](NC(=O)[C@H](C)N)C(=O)N1CCC[C@H]2O[C@H]3c4cc(Cl)ccc4OC(C)(C)[C@@H]3C[C@H]21` [BDG_34017951], the Inhibition percent under setting [3] was -1.63%. In the case of `C[C@@H]1CC[C@@H]2[C@@H](C1)c1c(ccc(C(=O)NCC(C)(C)CN3CCCC3)c1O)OC2(C)C` [BDG_34018827], under setting [2], the Inhibition percent is given as 1.80. For `C[C@@H]1CC[C@@H]2[C@@H](O1)c1cc(C(=O)NCCc3ccccc3)ccc1OC2(C)C` [BDG_34018895], the Inhibition percent under setting [1] is given as -0.86%. For `CC(C)CCC[C@@]1(C)Oc2cc(O)ccc2[C@H]2OCC3(CCNCC3)C[C@@H]21` [BDG_34020305], the Inhibition percent under setting [2] amounted to 19.22. Turning to `CC(C)CCC[C@]1(C)Oc2ccccc2[C@H]2OCC3(CCCN3)C[C@@H]21` (stereo partly drawn) [BDG_34020347], the Inhibition percent under setting [3] is 1.89%. With `O=C(NCCc1ccccc1)[C@@H]1[C@H](O)[C@@H](c2ccc(F)cc2)CN1C(=O)CCc1ccc(Cl)cc1` [BDG_34023221], the Inhibition percent under setting [1] is recorded as 2.58%. Take `COC(=O)C[C@H]1CC[C@H]2[C@H](O1)c1cc(-c3ccccc3)ccc1OC2(C)C` [BDG_34023292]: the Inhibition percent under setting [3] was 2.57%. Same read-out and setting: the figure for `COc1ccc2c(c1)OC(C)(C)[C@H]1CC[C@H](C)O[C@H]21` [BDG_34023313] is -1.30%. Turning to `C[C@@H]1CC[C@@H]2[C@@H](O1)c1cc(OCc3ccccc3)c(C=O)cc1OC2(C)C` [BDG_34027484], under setting [1], the Inhibition percent came out at 0.0122%. Regarding `C[C@@H]1CC[C@@H]2[C@@H](O1)c1cc(OCc3ccccc3)c(CO)cc1OC2(C)C` [BDG_34027487], the Inhibition percent under setting [1] is reported as -0.0357%. Consider `Cc1c(CN2C[C@H](c3ccc(F)cc3)[C@@H](O)[C@H]2C(=O)NCCc2ccccc2)[nH]c2ccc(F)cc12` [BDG_34027529], for which the Inhibition percent under setting [2] is on record as 6.14. For the compound `CC(C)C[C@H]1CN(C(=O)c2ccc(O)cc2)CC[C@H]1Nc1cccc(Cl)c1` [BDG_34030674], the Inhibition percent under setting [1] is listed as 7.44%. With `CC1(C)Oc2ccc(O)cc2[C@H]2O[C@@H](c3ccccc3)CC[C@@H]21` [BDG_34039634], the Inhibition percent under setting [3] is 6.48%. `CN(C)C(=O)[C@@H]1C[C@@H](n2cc(C(=O)NCCc3ccccc3)ccc2=O)[C@H](c2ccccc2)N1C` [BDG_34039793]: the Inhibition percent under setting [2] was determined as 1.80. Consider `CC1(C)Oc2ccc(OCc3ccccc3)cc2[C@@H]2O[C@H](CC(=O)O)CC[C@H]21` [BDG_34041764], for which the Inhibition percent under setting [2] came to 0.20. Turning to `Cc1cc(O[C@@H]2C[C@@H](NC(=O)CCC(=O)O)[C@H](N3CCc4ccccc4C3)[C@H]2O)cc(C(C)C)c1` [BDG_34049574], the Inhibition percent under setting [3] stood at 0.88%. Same read-out and setting: the figure for `O=C(O)CCC(=O)N[C@@H]1C[C@@H](Oc2cccc(Cl)c2)[C@H](O)[C@H]1N1CCc2ccccc2C1` [BDG_34049608] is -0.68%. `O=C(O)CCC(=O)N[C@@H]1C[C@@H](Oc2cccc(C(F)(F)F)c2)[C@H](O)[C@H]1N1CCc2ccccc2C1` [BDG_34049652]: under setting [2], the Inhibition percent is -0.28.
